In patent publication US8921376B2, “Pyrrolopyridines useful as inhibitors of protein kinase” (Vertex Pharmaceuticals Incorporated, priority 2005, dated 2014):

Legend:
Format in all cases: biochemical
JAK3 = molecular target: T1, JAK3 (Homo sapiens, UniProt P52333); assay: JAK3 inhibition assay (33P incorporation into poly(Glu)4Tyr)
T1 sequence (P52333 1-1124): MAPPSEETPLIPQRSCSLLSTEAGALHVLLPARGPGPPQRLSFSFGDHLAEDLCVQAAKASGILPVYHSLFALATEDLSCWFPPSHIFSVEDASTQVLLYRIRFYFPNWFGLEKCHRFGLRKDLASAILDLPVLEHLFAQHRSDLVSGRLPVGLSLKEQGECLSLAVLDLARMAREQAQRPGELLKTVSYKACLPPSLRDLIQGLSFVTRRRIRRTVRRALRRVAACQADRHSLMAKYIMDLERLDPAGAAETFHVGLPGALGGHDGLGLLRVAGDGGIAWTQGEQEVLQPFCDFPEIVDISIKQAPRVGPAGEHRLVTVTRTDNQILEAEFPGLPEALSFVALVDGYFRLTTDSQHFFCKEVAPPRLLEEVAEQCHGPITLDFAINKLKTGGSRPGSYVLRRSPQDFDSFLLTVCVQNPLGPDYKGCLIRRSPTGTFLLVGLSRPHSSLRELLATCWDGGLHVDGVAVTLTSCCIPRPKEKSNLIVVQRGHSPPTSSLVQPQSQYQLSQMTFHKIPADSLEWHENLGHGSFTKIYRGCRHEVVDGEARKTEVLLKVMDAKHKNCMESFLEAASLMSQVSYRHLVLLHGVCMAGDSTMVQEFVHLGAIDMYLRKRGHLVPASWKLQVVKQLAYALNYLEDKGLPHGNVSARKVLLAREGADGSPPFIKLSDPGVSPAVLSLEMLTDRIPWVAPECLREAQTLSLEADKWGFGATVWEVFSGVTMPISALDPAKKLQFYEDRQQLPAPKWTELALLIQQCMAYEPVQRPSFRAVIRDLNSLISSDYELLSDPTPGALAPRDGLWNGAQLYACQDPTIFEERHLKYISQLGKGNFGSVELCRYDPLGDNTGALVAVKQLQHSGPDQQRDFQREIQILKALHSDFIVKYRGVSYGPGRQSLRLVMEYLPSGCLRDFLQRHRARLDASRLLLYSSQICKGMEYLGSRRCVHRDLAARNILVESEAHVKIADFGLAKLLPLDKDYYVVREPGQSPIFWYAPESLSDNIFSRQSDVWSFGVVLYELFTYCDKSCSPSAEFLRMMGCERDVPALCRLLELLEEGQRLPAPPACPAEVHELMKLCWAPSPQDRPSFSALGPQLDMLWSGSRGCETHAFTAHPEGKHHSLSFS
How it was run: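 After TCA quench and filter harvest, scintillation counting of 33P measured phosphorylation of poly(Glu)4Tyr (1 μM) by 1 nM JAK3. The 20-min, 25° C. reaction contained 5 μM ATP (200 μCi/μmole) in pH 7.4 HEPES buffer with 10 mM MgCl2.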

JAK2 = JAK2 (Homo sapiens, UniProt O60674); assay: JAK2 inhibition assay (as Example 3 with JAK-2 enzyme)
Sequence of JAK2 (O60674 whole entry): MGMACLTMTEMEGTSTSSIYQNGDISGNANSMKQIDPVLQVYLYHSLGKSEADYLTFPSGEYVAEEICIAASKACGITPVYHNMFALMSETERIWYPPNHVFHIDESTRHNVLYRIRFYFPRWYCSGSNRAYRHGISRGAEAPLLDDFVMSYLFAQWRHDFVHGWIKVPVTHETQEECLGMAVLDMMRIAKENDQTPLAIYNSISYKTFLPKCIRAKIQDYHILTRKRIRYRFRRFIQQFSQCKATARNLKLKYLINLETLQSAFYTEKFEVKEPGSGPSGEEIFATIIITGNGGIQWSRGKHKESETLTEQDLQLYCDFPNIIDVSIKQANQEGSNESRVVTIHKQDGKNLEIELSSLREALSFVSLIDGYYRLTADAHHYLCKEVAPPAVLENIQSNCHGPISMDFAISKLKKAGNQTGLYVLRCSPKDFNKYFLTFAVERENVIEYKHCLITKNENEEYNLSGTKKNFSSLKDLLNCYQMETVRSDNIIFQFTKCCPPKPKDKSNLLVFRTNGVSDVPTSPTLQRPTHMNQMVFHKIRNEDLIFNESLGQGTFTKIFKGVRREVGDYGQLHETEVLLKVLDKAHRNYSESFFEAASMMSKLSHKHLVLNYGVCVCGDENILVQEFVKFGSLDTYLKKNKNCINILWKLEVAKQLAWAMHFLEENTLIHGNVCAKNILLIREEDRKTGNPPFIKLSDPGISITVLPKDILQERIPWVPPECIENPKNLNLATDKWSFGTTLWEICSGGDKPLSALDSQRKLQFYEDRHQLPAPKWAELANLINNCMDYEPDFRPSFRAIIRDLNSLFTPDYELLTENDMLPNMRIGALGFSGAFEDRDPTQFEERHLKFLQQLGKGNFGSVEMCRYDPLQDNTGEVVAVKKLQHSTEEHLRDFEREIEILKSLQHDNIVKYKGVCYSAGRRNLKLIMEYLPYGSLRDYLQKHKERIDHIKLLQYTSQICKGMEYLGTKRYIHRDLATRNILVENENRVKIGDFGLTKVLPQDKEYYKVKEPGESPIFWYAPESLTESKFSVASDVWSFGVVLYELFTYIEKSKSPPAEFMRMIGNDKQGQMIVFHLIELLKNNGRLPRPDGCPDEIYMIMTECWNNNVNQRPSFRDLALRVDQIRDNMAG
How it was run: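 In HEPES pH 7.4 buffer with 10 mM MgCl2, 1 mM DTT, 25 mM NaCl and 0.01% BSA, JAK2 enzyme phosphorylated poly(Glu)4Tyr (final 15 μM) using 33P-ATP (final 12 μM) for 20 min at room temperature (25 °C). Reactions stopped with TCA; incorporated 33P measured by scintillation after filtration.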

ROCK I = ROCK I (Homo sapiens, UniProt Q13464); assay: ROCK-I inhibition assay (radioactive enzyme assay, MBP substrate)
Sequence of ROCK I (Q13464 whole entry): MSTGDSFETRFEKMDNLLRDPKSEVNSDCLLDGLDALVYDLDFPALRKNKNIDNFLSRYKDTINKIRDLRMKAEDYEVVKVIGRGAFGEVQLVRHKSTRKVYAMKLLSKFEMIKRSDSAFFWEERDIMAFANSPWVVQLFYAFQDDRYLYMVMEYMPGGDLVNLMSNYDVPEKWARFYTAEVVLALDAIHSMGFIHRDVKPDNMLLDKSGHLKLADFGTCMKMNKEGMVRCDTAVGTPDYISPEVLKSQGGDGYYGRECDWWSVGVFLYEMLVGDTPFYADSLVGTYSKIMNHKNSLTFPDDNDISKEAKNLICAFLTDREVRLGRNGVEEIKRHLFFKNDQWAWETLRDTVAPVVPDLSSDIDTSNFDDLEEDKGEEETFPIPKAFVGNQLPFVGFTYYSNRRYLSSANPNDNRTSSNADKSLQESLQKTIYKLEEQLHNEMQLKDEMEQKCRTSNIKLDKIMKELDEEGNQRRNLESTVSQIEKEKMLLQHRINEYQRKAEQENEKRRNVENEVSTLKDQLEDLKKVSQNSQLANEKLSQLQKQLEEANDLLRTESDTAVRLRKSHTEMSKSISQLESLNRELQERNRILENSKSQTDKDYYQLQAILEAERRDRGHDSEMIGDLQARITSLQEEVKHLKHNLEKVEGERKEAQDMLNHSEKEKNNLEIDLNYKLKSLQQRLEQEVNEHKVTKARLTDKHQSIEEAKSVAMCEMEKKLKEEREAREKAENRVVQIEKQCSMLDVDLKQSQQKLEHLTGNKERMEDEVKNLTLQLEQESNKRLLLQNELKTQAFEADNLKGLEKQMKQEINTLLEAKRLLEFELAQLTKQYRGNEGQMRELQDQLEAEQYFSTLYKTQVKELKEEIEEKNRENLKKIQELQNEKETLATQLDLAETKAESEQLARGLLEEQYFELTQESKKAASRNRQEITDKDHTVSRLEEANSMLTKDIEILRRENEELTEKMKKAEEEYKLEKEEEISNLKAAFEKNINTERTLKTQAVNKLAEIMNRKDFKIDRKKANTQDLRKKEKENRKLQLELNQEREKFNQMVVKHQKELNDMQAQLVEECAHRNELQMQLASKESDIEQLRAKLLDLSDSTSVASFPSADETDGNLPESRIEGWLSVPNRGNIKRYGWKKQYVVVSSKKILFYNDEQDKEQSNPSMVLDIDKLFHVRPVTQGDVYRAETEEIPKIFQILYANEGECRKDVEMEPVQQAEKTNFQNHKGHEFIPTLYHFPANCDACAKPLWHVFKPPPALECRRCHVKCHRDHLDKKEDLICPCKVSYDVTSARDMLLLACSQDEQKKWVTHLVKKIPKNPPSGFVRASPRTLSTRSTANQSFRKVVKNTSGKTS
How it was run: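 Human ROCK at 5 nM phosphorylated 27 μM myelin basic protein with 13 μM [γ-33P]ATP (final) in HEPES pH 7.5, MgCl2, NaCl, DTT and 1.5% DMSO. Reactions ran 2 h at room temperature before TCA quench and filter-plate scintillation counting. After background subtraction, data were fit to give Ki(app).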

[1] = Table 6, enzyme inhibition data (Ki)
[2] = enzyme inhibition, Ki(app), Table 5

SMILES | Ki (JAK3; [1]) | Ki (JAK2; [1]) | Ki (ROCK I; [1]) | Ki (JAK3; enzyme inhibition, Table 5) | Ki (JAK2; enzyme inhibition, Table 5) | Ki (ROCK I; [2])
C=C(c1c(Cl)cnc2[nH]ccc12)C1CCCC1 [compound 67] |  |  |  | < 500 nM | < 500 nM | 500 to 5000 nM
CC(C)(C)OC(=O)n1c(-c2c(Cl)cnc3[nH]ccc23)cc2ccccc21 [compound 147] | > 5000 nM | > 5000 nM | > 4000 nM |  |  | 
CC(C)c1cccc(-c2ccnc3[nH]ccc23)n1 [compound 97, 4-(6-isopropylpyridin-2-yl)-1H-pyrrolo[2,3-b]pyridine] |  |  |  | < 500 nM | < 500 nM | < 500 nM
O=C(CCNc1nc(-c2ccnc3[nH]ccc23)ncc1F)NCC(F)(F)F [compound 193] | 500 to 5000 nM | 500 to 5000 nM | > 4000 nM |  |  | 
Clc1ccccc1CNc1cccc(-c2ccnc3[nH]ccc23)n1 [compound 33, N-(2-Chlorobenzyl)-6-(1H-pyrrolo[2,3-b]pyridin-4-yl)pyridin-2-amine] |  |  |  | 500 to 5000 nM | 500 to 5000 nM | 500 to 5000 nM
CS(=O)(=O)N1CCCC(Nc2c(Cl)cnc3[nH]ccc23)C1 (stereo not drawn) [compound 182] | < 500 nM | < 500 nM | 500 to 5000 nM |  |  | 
O=C(CC(F)(F)F)N1CC[C@H](Nc2c(Cl)cnc3[nH]ccc23)C1 [compound 187] | < 500 nM | < 500 nM | 500 to 5000 nM |  |  | 
c1cc(NCC2CCCO2)nc(-c2ccnc3[nH]ccc23)c1 (stereo not drawn) [compound 36, N-((tetrahydrofuran-2-yl)methyl)-6-(1H-pyrrolo[2,3-b]pyridin-4-yl)pyridin-2-amine] |  |  |  | 500 to 5000 nM | 500 to 5000 nM | 500 to 5000 nM
C#CCOC(=O)N1CC[C@@H](Nc2c(Cl)cnc3[nH]ccc23)C1 [compound 169] | < 500 nM | < 500 nM | 500 to 5000 nM |  |  | 
C#CCOC(=O)N1CCCC(Nc2c(Cl)cnc3[nH]ccc23)C1 (stereo not drawn) [compound 172] | < 500 nM | < 500 nM | 500 to 5000 nM |  |  | 
CCC(=O)N1CCCC(Nc2c(Cl)cnc3[nH]ccc23)C1 (stereo not drawn) [compound 175] | < 500 nM | < 500 nM | > 4000 nM |  |  | 
CN(C)CCN(C)c1cccc(-c2c(Cl)cnc3[nH]ccc23)n1 [compound 83] |  |  |  | < 500 nM | < 500 nM | 500 to 5000 nM
COC(=O)c1ccccc1-c1ccnc2[nH]ccc12 [compound 117] |  |  |  | > 5000 nM | > 5000 nM | 500 to 5000 nM
COC(=O)N1CC[C@H](Nc2c(Cl)cnc3[nH]ccc23)C1 [compound 166] | 500 to 5000 nM | < 500 nM | > 4000 nM |  |  | 
O=C(O)c1cc(-c2c(Cl)cnc3[nH]ccc23)c[nH]1 [compound 81, 4-(5-Chloro-1H-pyrrolo[2,3b]pyridin-4-yl)-1H-pyrrole-2-carboxylic acid] |  |  |  | < 500 nM | < 500 nM | 500 to 5000 nM
CCC(C)CNc1cccc(-c2ccnc3[nH]ccc23)n1 (stereo not drawn) [compound 72, N-(2-Methylbutyl)-6-(1H-pyrrolo[2,3-b]pyridin-4-yl)pyridin-2-amine] |  |  |  | 500 to 5000 nM | < 500 nM | 500 to 5000 nM
FC(F)(F)c1ccccc1-c1ccnc2[nH]ccc12 [compound 208] | > 5000 nM | > 5000 nM | 500 to 5000 nM |  |  | 
CS(=O)(=O)N1CC[C@@H](Nc2c(Cl)cnc3[nH]ccc23)C1 [compound 184] | < 500 nM | < 500 nM | 500 to 5000 nM |  |  | 
Cc1cccnc1-c1ccnc2[nH]ccc12 [compound 74, 4-(3-methylpyridin-2-yl)-1H-pyrrolo[2,3b]pyridine] |  |  |  | 500 to 5000 nM | > 5000 nM | 500 to 5000 nM
CNC(=O)c1cccc(-c2ccnc3[nH]ccc23)c1 [compound 91, N-Methyl-3-(1H-pyrrolo[2,3-b]pyridin-4-yl)-benzamide] |  |  |  | 500 to 5000 nM | 500 to 5000 nM | 500 to 5000 nM
O=C(O)c1cccc(-c2ccnc3[nH]ccc23)c1 [compound 47, 3-(1H-Pyrrolo[2,3-b]pyridin-4-yl)-benzoic acid] |  |  |  | 500 to 5000 nM | 500 to 5000 nM | 500 to 5000 nM
Clc1cnc2[nH]ccc2c1-c1cc2ccccc2s1 [compound 137] | < 500 nM | < 500 nM | > 4000 nM |  |  | 
Clc1cc(-c2ccnc3[nH]ccc23)ccn1 [compound 39, 4-(2-Chloro-pyridin-4-yl)-1H-pyrrolo[2,3-b]pyridine] |  |  |  | 500 to 5000 nM | 500 to 5000 nM | 500 to 5000 nM

Results, then the compound that gave them:

Ki (JAK3; [1]) | Ki (JAK2; [1]) | Ki (ROCK I; [1]) | Ki (JAK3; enzyme inhibition, Table 5) | Ki (JAK2; enzyme inhibition, Table 5) | Ki (ROCK I; [2]) | SMILES
< 500 nM | < 500 nM | < 500 nM |  |  |  | CNC(=O)c1ccc(-c2ccnc3[nH]ccc23)cc1 [compound 272]
< 500 nM | < 500 nM | < 500 nM |  |  |  | CCN(CCO)C(=O)c1cc(-c2ccnc3[nH]ccc23)c[nH]1 [compound 361]
> 5000 nM | > 5000 nM | > 4000 nM |  |  |  | Cc1cc(C)c(-c2ccnc3[nH]ccc23)c(C)c1 [compound 242]
< 500 nM | < 500 nM | < 500 nM |  |  |  | C=CCN(C(=O)c1csc(-c2ccnc3[nH]ccc23)n1)C1CCCC1 [compound 410]
< 500 nM | < 500 nM | < 500 nM |  |  |  | C=CCN(CC=C)C(=O)c1csc(-c2ccnc3[nH]ccc23)n1 [compound 401]
500 to 5000 nM | > 5000 nM | 500 to 5000 nM |  |  |  | Cc1ccccc1-c1ccnc2[nH]ccc12 [compound 219]
< 500 nM | < 500 nM | < 500 nM |  |  |  | C=CCN(CC=C)C(=O)c1ccc(-c2ccnc3[nH]ccc23)s1 [compound 315]
< 500 nM | < 500 nM | > 4000 nM |  |  |  | O=C(Cn1ccc2cnc(-c3ccnc4[nH]ccc34)nc21)NCC(F)(F)F [compound 424]
< 500 nM | < 500 nM | < 500 nM |  |  |  | O=C(NCCC(F)(F)F)c1cc(-c2ccnc3[nH]ccc23)c[nH]1 [compound 293]
< 500 nM | < 500 nM | < 500 nM |  |  |  | N#CCCN(Cc1ccccc1)C(=O)c1cc(-c2ccnc3[nH]ccc23)c[nH]1 [compound 312]
< 500 nM | < 500 nM | < 500 nM |  |  |  | O=C(NCC(F)F)c1cc(-c2ccnc3[nH]ccc23)c[nH]1 [compound 292]
500 to 5000 nM | < 500 nM | 500 to 5000 nM |  |  |  | O=C(c1cc(-c2ccnc3[nH]ccc23)c[nH]1)N1CCCC1CO (stereo not drawn) [compound 362]
> 5000 nM | > 5000 nM | 500 to 5000 nM |  |  |  | COc1ccc(OC)c(-c2ccnc3[nH]ccc23)c1 [compound 221]
500 to 5000 nM | < 500 nM | 500 to 5000 nM |  |  |  | CCNC(=O)c1ccc(-c2ccnc3[nH]ccc23)cc1 [compound 273]
> 5000 nM | > 5000 nM | < 500 nM |  |  |  | Cc1ccc(C)c(-c2ccnc3[nH]ccc23)c1 [compound 209]
500 to 5000 nM | 500 to 5000 nM | 500 to 5000 nM |  |  |  | Oc1ccccc1-c1ccnc2[nH]ccc12 [compound 248]
< 500 nM | < 500 nM | < 500 nM |  |  |  | CN(CC(F)(F)F)C(=O)c1cc(-c2c(F)cnc3[nH]ccc23)c[nH]1 [compound 393]
< 500 nM | < 500 nM | < 500 nM |  |  |  | N#CCCN(Cc1ccccc1)C(=O)c1cc(-c2c(F)cnc3[nH]ccc23)c[nH]1 [compound 394]
< 500 nM | < 500 nM | 500 to 5000 nM |  |  |  | CCN(Cc1ccccc1)C(=O)c1cc(-c2c(F)cnc3[nH]ccc23)c[nH]1 [compound 395]
< 500 nM | < 500 nM | 500 to 5000 nM |  |  |  | CC(C)CN(C)C(=O)c1cc(-c2c(Cl)cnc3[nH]ccc23)c[nH]1 [compound 341]
< 500 nM | < 500 nM | < 500 nM |  |  |  | O=C(c1csc(-c2ccnc3[nH]ccc23)n1)N(CCC(F)(F)F)CC1CC1 [compound 402]
